{
  "source": "ChEMBL document CHEMBL3885881",
  "about": "“DrugMatrix”",
  "organism": "Rattus norvegicus",
  "test": "DrugMatrix - Regimen: Daily Repeat",
  "assay_type": "toxicity, organism-based, Sprague-Dawley",
  "parameters": "regimen Daily Repeat, gender Male, age 6-8 weeks",
  "conditions": "in vivo, po, 30 mg/kg, route oral GAVAGE, dose level Low, vehicle .5 % CMC; for BASOPHIL / EOSINOPHIL / ERYTHROCYTE COUNT / HEMATOCRIT / HEMOGLOBIN / LEUKOCYTE COUNT / LYMPHOCYTE / MEAN CORPUSCULAR HEMOGLOBIN / MEAN CORPUSCULAR HEMOGLOBIN CONCENTRATION / MEAN CORPUSCULAR VOLUME / MONOCYTE / NEUTROPHIL / PLATELET COUNT: tissue Blood; for ALANINE AMINOTRANSFERASE / ALBUMIN / ALKALINE PHOSPHATASE / ASPARTATE AMINOTRANSFERASE / BLOOD UREA NITROGEN / CHLORIDE / CHOLESTEROL / CREATINE PHOSPHOKINASE / CREATININE / GLUCOSE / PHOSPHORUS / POTASSIUM / SODIUM / TOTAL BILIRUBIN / TOTAL PROTEIN: tissue Plasma",
  "data": [
    {"smiles": "CCCc1cc(=O)[nH]c(=S)[nH]1", "note": "[PROPYLTHIOURACIL]", "values": [
      {"measurement": "BASOPHIL", "setting": "72 h, time 3 day", "result": 0, "unit": "%"},
      {"measurement": "EOSINOPHIL", "setting": "72 h, time 3 day", "result": 0.67, "unit": "%"},
      {"measurement": "ERYTHROCYTE COUNT", "setting": "72 h, time 3 day", "result": 5.84, "unit": "x10E6/uL"},
      {"measurement": "HEMATOCRIT", "setting": "72 h, time 3 day", "result": 36.23, "unit": "%"},
      {"measurement": "HEMOGLOBIN", "setting": "72 h, time 3 day", "result": 14.13, "unit": "G/DL"},
      {"measurement": "LEUKOCYTE COUNT", "setting": "72 h, time 3 day", "result": 20.27, "unit": "x10E3/uL"},
      {"measurement": "LYMPHOCYTE", "setting": "72 h, time 3 day", "result": 89.33, "unit": "%"},
      {"measurement": "MEAN CORPUSCULAR HEMOGLOBIN", "setting": "72 h, time 3 day", "result": 24.23, "unit": "pg"},
      {"measurement": "MEAN CORPUSCULAR HEMOGLOBIN CONCENTRATION", "setting": "72 h, time 3 day", "result": 39, "unit": "G/DL"},
      {"measurement": "MEAN CORPUSCULAR VOLUME", "setting": "72 h, time 3 day", "result": 62.03, "unit": "fL"},
      {"measurement": "MONOCYTE", "setting": "72 h, time 3 day", "result": 2, "unit": "%"},
      {"measurement": "NEUTROPHIL", "setting": "72 h, time 3 day", "result": 8, "unit": "%"},
      {"measurement": "PLATELET COUNT", "setting": "72 h, time 3 day", "result": 1163.33, "unit": "x10E3/uL"},
      {"measurement": "ALANINE AMINOTRANSFERASE", "setting": "72 h, time 3 day", "result": 44, "unit": "u/L"},
      {"measurement": "ALBUMIN", "setting": "72 h, time 3 day", "result": 3.73, "unit": "G/DL"},
      {"measurement": "ALKALINE PHOSPHATASE", "setting": "72 h, time 3 day", "result": 305.67, "unit": "u/L"},
      {"measurement": "ASPARTATE AMINOTRANSFERASE", "setting": "72 h, time 3 day", "result": 56, "unit": "u/L"},
      {"measurement": "BLOOD UREA NITROGEN", "setting": "72 h, time 3 day", "result": 11, "unit": "mg/dL"},
      {"measurement": "CHLORIDE", "setting": "72 h, time 3 day", "result": 106.33, "unit": "MEQ/L"},
      {"measurement": "CHOLESTEROL", "setting": "72 h, time 3 day", "result": 78, "unit": "mg/dL"},
      {"measurement": "CREATINE PHOSPHOKINASE", "setting": "72 h, time 3 day", "result": 125.67, "unit": "u/L"},
      {"measurement": "CREATININE", "setting": "72 h, time 3 day", "result": 0.47, "unit": "mg/dL"},
      {"measurement": "GLUCOSE", "setting": "72 h, time 3 day", "result": 167.33, "unit": "mg/dL"},
      {"measurement": "PHOSPHORUS", "setting": "72 h, time 3 day", "result": 11, "unit": "mg/dL"},
      {"measurement": "POTASSIUM", "setting": "72 h, time 3 day", "result": 6.5, "unit": "MEQ/L"},
      {"measurement": "SODIUM", "setting": "72 h, time 3 day", "result": 152, "unit": "MEQ/L"},
      {"measurement": "TOTAL BILIRUBIN", "setting": "72 h, time 3 day", "result": 0.3, "unit": "mg/dL"},
      {"measurement": "TOTAL PROTEIN", "setting": "72 h, time 3 day", "result": 5.9, "unit": "G/DL"},
      {"measurement": "BASOPHIL", "setting": "120 h, time 5 day", "result": 0, "unit": "%"},
      {"measurement": "EOSINOPHIL", "setting": "120 h, time 5 day", "result": 0, "unit": "%"},
      {"measurement": "ERYTHROCYTE COUNT", "setting": "120 h, time 5 day", "result": 6.26, "unit": "x10E6/uL"},
      {"measurement": "HEMATOCRIT", "setting": "120 h, time 5 day", "result": 37.07, "unit": "%"},
      {"measurement": "HEMOGLOBIN", "setting": "120 h, time 5 day", "result": 14.77, "unit": "G/DL"},
      {"measurement": "LEUKOCYTE COUNT", "setting": "120 h, time 5 day", "result": 11.7, "unit": "x10E3/uL"},
      {"measurement": "LYMPHOCYTE", "setting": "120 h, time 5 day", "result": 87, "unit": "%"},
      {"measurement": "MEAN CORPUSCULAR HEMOGLOBIN", "setting": "120 h, time 5 day", "result": 23.6, "unit": "pg"},
      {"measurement": "MEAN CORPUSCULAR HEMOGLOBIN CONCENTRATION", "setting": "120 h, time 5 day", "result": 39.83, "unit": "G/DL"},
      {"measurement": "MEAN CORPUSCULAR VOLUME", "setting": "120 h, time 5 day", "result": 59.2, "unit": "fL"},
      {"measurement": "MONOCYTE", "setting": "120 h, time 5 day", "result": 1.67, "unit": "%"},
      {"measurement": "NEUTROPHIL", "setting": "120 h, time 5 day", "result": 11.33, "unit": "%"},
      {"measurement": "PLATELET COUNT", "setting": "120 h, time 5 day", "result": 1185.67, "unit": "x10E3/uL"},
      {"measurement": "ALANINE AMINOTRANSFERASE", "setting": "120 h, time 5 day", "result": 32.67, "unit": "u/L"},
      {"measurement": "ALBUMIN", "setting": "120 h, time 5 day", "result": 3.53, "unit": "G/DL"},
      {"measurement": "ALKALINE PHOSPHATASE", "setting": "120 h, time 5 day", "result": 297.33, "unit": "u/L"},
      {"measurement": "ASPARTATE AMINOTRANSFERASE", "setting": "120 h, time 5 day", "result": 51.67, "unit": "u/L"},
      {"measurement": "BLOOD UREA NITROGEN", "setting": "120 h, time 5 day", "result": 13.33, "unit": "mg/dL"},
      {"measurement": "CHLORIDE", "setting": "120 h, time 5 day", "result": 108.33, "unit": "MEQ/L"},
      {"measurement": "CHOLESTEROL", "setting": "120 h, time 5 day", "result": 68, "unit": "mg/dL"},
      {"measurement": "CREATINE PHOSPHOKINASE", "setting": "120 h, time 5 day", "result": 112, "unit": "u/L"},
      {"measurement": "CREATININE", "setting": "120 h, time 5 day", "result": 0.53, "unit": "mg/dL"},
      {"measurement": "GLUCOSE", "setting": "120 h, time 5 day", "result": 180.33, "unit": "mg/dL"},
      {"measurement": "PHOSPHORUS", "setting": "120 h, time 5 day", "result": 10.03, "unit": "mg/dL"},
      {"measurement": "POTASSIUM", "setting": "120 h, time 5 day", "result": 6.8, "unit": "MEQ/L"},
      {"measurement": "SODIUM", "setting": "120 h, time 5 day", "result": 149, "unit": "MEQ/L"},
      {"measurement": "TOTAL BILIRUBIN", "setting": "120 h, time 5 day", "result": 0.23, "unit": "mg/dL"},
      {"measurement": "TOTAL PROTEIN", "setting": "120 h, time 5 day", "result": 5.7, "unit": "G/DL"}
    ]}
  ]
}
